Measurements taken from ChEMBL document CHEMBL4043251, “Synthesis of conjugates between oxazolidinone antibiotics and a pyochelin analogue” (Bioorg Med Chem Lett, 2017).
Active and inactive are the calls of the source. The rule behind the calls is not given here.

Assays:
[1] = Solubility of the compound in physiological medium; type: physicochemical
[2] = Solubility of the compound in aqueous medium; type: physicochemical; details: buffer
[3] = tested on: Pseudomonas aeruginosa; assay: Antibacterial activity against Pseudomonas aeruginosa PAO1 by disc diffusion method; type: functional

Row | SMILES | solubility [1] | solubility [2] | Activity [3]
1 | CC(=O)NC[C@H]1CN(c2ccc(N3CCN(C(=O)CNC(=O)OCCOCCOCC(=O)NCCCN4C([C@H]5CSC(c6ccccc6O)=N5)SC[C@H]4C(=O)O)CC3)c(F)c2)C(=O)O1 (stereo partly drawn) | Insoluble | Insoluble | inactive
2 | CC(=O)NC[C@H]1CN(c2ccc(N3CCN(C(=O)OCCOCCOCC(=O)NCCCN4C([C@H]5CSC(c6ccccc6O)=N5)SC[C@H]4C(=O)O)CC3)c(F)c2)C(=O)O1 (stereo partly drawn) | Insoluble | Insoluble | inactive
3 | CC(=O)NC[C@H]1CN(c2ccc(N3CCN(C(=O)CCC(=O)NCCCN4C([C@H]5CSC(c6ccccc6O)=N5)SC[C@H]4C(=O)O)CC3)c(F)c2)C(=O)O1 (stereo partly drawn) | Insoluble |  | inactive
